Source: patent publication US11787780B2 (CORCEPT THERAPEUTICS INCORPORATED, priority 2020, dated 2023)

Legend:
[1] = target: glucocorticoid receptor (GR) recombinant ligand binding domain (LBD) (Homo sapiens (Human), UniProt P04150); test: GR binding fluorescence polarisation (FP) assay; conditions: displacement of fluorescently tagged ligand
Protocol: Binding of test compounds to the glucocorticoid receptor (GR) is determined using a fluorescence polarisation (FP) assay utilising a recombinant ligand binding domain (LBD) of GR. The test compounds are assessed by their ability to displace a fluorescently tagged ligand and detection of the resulting decrease in fluorescence polarisation.

[2] = test system: induction of TAT by dexamethasone in HepG2 cells; test: Hep G2 TAT assay (inhibition of dexamethasone-induced TAT); type: cell-based, human; conditions: challenge of 100 nM dexamethasone, IC50 converted to Ki by Cheng and Prusoff equation

Sequence of glucocorticoid receptor (GR) recombinant ligand binding domain (LBD) (P04150 524-758): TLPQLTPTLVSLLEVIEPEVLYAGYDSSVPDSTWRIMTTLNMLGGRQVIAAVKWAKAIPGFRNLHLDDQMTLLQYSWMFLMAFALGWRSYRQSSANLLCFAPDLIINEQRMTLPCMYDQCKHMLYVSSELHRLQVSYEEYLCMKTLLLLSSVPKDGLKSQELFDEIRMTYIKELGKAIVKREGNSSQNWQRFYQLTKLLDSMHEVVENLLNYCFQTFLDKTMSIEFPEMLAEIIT

Row | Structure (SMILES) | IC50 [1] [nM] | Ki [2] [nM]
1 | CCCn1cc(S(=O)(=O)N2CC=C(c3cc4cnn(-c5ccc(F)cc5)c4cc3Cl)CC2)cn1 [Example 143] | 384 | 32
2 | COCC1(c2cc3cnn(-c4ccc(F)cc4)c3cc2C)CCN(S(=O)(=O)c2cnn(C)c2)C1 (stereo not drawn) [Example 340, 1-(4-fluorophenyl)-5-(3-(methoxymethyl)-1-((1-methyl-1H-pyrazol-4-yl)sulfonyl)pyrrolidin-3-yl)-6-methyl-1H-indazole] | 57 | 820
3 | COc1nn(C)cc1-n1ncc2cc(C3(Cc4ccccc4)CCN(S(=O)(=O)c4cnn(C)n4)C3)c(C)cc21 (stereo not drawn) [Example 251, 5-(3-benzyl-1-((2-methyl-2H-1,2,3-triazol-4-yl)sulfonyl)pyrrolidin-3-yl)-1-(3-methoxy-1-methyl-1H-pyrazol-4-yl)-6-methyl-1H-indazole] | 27 | 180
4 | Cc1cc2c(cnn2-c2ccc(F)cc2)cc1C1(Cc2ccccn2)CCN(S(=O)(=O)c2cnn(C)c2)C1 (stereo not drawn) [Example 151] | 17 | 161
5 | CCCn1cc(S(=O)(=O)N2CCC(COC)(c3cc4cnn(-c5ccc(F)cc5)c4cc3C)CC2)cn1 [Example 24, 1-(4-fluorophenyl)-5-(4-(methoxymethyl)-1-((1-propyl-1H-pyrazol-4-yl)sulfonyl)piperidin-4-yl)-6-methyl-1H-indazole] | 84 | 1510
6 | CS(=O)(=O)N1CC=C(c2cc3cnn(-c4ccc(F)cc4)c3cc2Cl)CC1 [Example 142] | 429 | 715
7 | CCCn1cc(S(=O)(=O)N2CCC(c3cc4cnn(-c5ccc(F)cc5)c4cc3C)CC2)cn1 [Example 6, 1-(4-fluorophenyl)-6-methyl-5-(1-((1-propyl-1H-pyrazol-4-yl)sulfonyl)piperidin-4-yl)-1H-indazole] | 148 | 118
8 | CCCn1cc(S(=O)(=O)N2CCC(Cc3ccccc3)(c3cc4cnn(-c5ccc(F)cc5)c4cc3C)C2)cn1 (stereo not drawn) [Example 147] | 42 | 12
9 | CC(C)c1cc2c(cnn2-c2ccc(F)cc2)cc1C1(Cc2ccccc2)CCN(S(C)(=O)=O)C1 (stereo not drawn) [Example 163] | 106 | 60
10 | Cc1cc2c(cnn2-c2ccc(F)c(C#N)c2)cc1C1(Cc2ccccc2)CCN(S(=O)(=O)c2cnn(C)n2)C1 (stereo not drawn) [Example 239, 5-(5-(3-benzyl-1-((2-methyl-2H-1,2,3-triazol-4-yl)sulfonyl)pyrrolidin-3-yl)-6-methyl-1H-indazol-1-yl)-2-fluorobenzonitrile] | 28 | 36
11 | Cn1ncc(S(=O)(=O)N2CCC(Cc3ccccc3)(c3cc4cnn(-c5ccc(F)cc5)c4cc3Cl)C2)n1 (stereo not drawn) [Example 226, 5-(3-benzyl-1-((2-methyl-2H-1,2,3-triazol-4-yl)sulfonyl)pyrrolidin-3-yl)-6-chloro-1-(4-fluorophenyl)-1H-indazole] | 21 | 13
12 | CCCn1cc(S(=O)(=O)N2CCC(Cc3ccccc3)(c3cc4cnn(-c5ccc(F)cc5)c4cc3C(C)C)C2)cn1 (stereo not drawn) [Example 165] | 72 | 37
13 | CCCn1cc(S(=O)(=O)N2CCC(c3ccc4c(cnn4-c4ccc(F)cc4)c3)C[C@H]2C)cn1 (stereo partly drawn) [Example 8, 1-(4-fluorophenyl)-5-((2R)-2-methyl-1-((1-propyl-1H-pyrazol-4-yl)sulfonyl)piperidin-4-yl)-1H-indazole] | 214 | 238
14 | CCCn1cc(S(=O)(=O)N2CC=C(c3cc4cnn(-c5ccc(F)cc5)c4cc3C(C)C)CC2)cn1 [Example 141] | 4220 | 487
15 | Cn1cc(S(=O)(=O)N2CCC(Cc3ccccc3)(c3cc4cnn(-c5ccc(F)cc5)c4cc3F)C2)cn1 (stereo not drawn) [Example 173] | 66 | 69
16 | Cc1cc2c(cnn2-c2ccc(=O)n(C)c2)cc1C1(Cc2ccccc2)CCN(S(=O)(=O)c2cn(C)cn2)C1 (stereo not drawn) [Example 290, 5-(5-(3-benzyl-1-((1-methyl-1H-imidazol-4-yl)sulfonyl)pyrrolidin-3-yl)-6-methyl-1H-indazol-1-yl)-1-methylpyridin-2(1H)-one] | 62 | 200

Stronger by IC50 [1], values ahead:

Row | IC50 [1] [nM] | Structure (SMILES) | Ki [2] [nM]
17 | 14 | COc1cc2c(cnn2-c2ccc(=O)n(C)c2)cc1C1(Cc2ccccc2)CCN(S(=O)(=O)C2CC2)C1 (stereo not drawn) [Example 321] | 270
18 | 14 | Cn1cc(S(=O)(=O)N2CCC(Cc3ccccc3)(c3cc4cnn(-c5ccc(F)cc5)c4cc3Cl)C2)cn1 (stereo not drawn) [Example 223, 5-(3-benzyl-1-((1-methyl-1H-pyrazol-4-yl)sulfonyl)pyrrolidin-3-yl)-6-chloro-1-(4-fluorophenyl)-1H-indazole] | 38
19 | 13 | CCCn1cc(S(=O)(=O)N2CCC(Cc3cccnc3)(c3cc4cnn(-c5ccc(F)cc5)c4cc3C)C2)cn1 (stereo not drawn) [Example 149] | 108
20 | 13 | Cc1cc2c(cnn2-c2ccc(F)cc2)cc1C1(Cc2ccccn2)CCN(S(C)(=O)=O)C1 (stereo not drawn) [Example 150] | 169
21 | 12 | Cc1cc2c(cnn2-c2ccc(=O)n(C)c2)cc1C1(Cc2ccc(F)cc2)CCN(S(=O)(=O)c2cnn(C)c2)C1 (stereo not drawn) [Example 323, 5-(5-(3-(4-fluorobenzyl)-1-((1-methyl-1H-pyrazol-4-yl)sulfonyl)pyrrolidin-3-yl)-6-methyl-1H-indazol-1-yl)-1-methylpyridin-2(1H)-one] | 97
22 | 11 | Cc1cc2c(cnn2-c2ccc(F)cc2)cc1C1(Cc2ccccc2)CCN(S(=O)(=O)c2cnn(C)c2)C1 (stereo not drawn) [Example 153] | 26
23 | 11 | Cc1cncc(S(=O)(=O)N2CCC(Cc3ccccc3)(c3cc4cnn(-c5ccc(=O)n(C)c5)c4cc3C)C2)c1 (stereo not drawn) [Example 309, 5-(5-(3-benzyl-1-((5-methylpyridin-3-yl)sulfonyl)pyrrolidin-3-yl)-6-methyl-1H-indazol-1-yl)-1-methylpyridin-2(1H)-one] | 66
24 | 11 | COc1cc2c(cnn2-c2ccc(F)cc2)cc1C1(Cc2ccccc2)CCN(S(=O)(=O)c2cnn(C)c2)C1 (stereo not drawn) [Example 161] | 39
25 | 10 | Cc1cc2c(cnn2-c2ccc(F)cc2)cc1C1(Cc2ccccc2)CCN(S(=O)(=O)c2ccn(C)n2)C1 (stereo not drawn) [Example 215, 5-(3-benzyl-1-((1-methyl-1H-pyrazol-3-yl)sulfonyl)pyrrolidin-3-yl)-1-(4-fluorophenyl)-6-methyl-1H-indazole] | 10
26 | 10 | CCCn1cc(S(=O)(=O)N2CCN(c3cc4cnn(-c5cccc(C(=O)NC6CCOC6)c5)c4cc3C)CC23CC3)cn1 (stereo not drawn) [Example 84] | 103
27 | 9 | CCCn1cc(NS(=O)(=O)C2CCN(c3cc4cnn(-c5ccc(F)cc5)c4cc3C)C2)cn1 (stereo not drawn) [Example 29, 1-(1-(4-fluorophenyl)-6-methyl-1H-indazol-5-yl)-N-(1-propyl-1H-pyrazol-4-yl)pyrrolidine-3-sulfonamide] | 210
28 | 6.7 | Cc1cc2c(cnn2-c2ccc(=O)n(C)c2)cc1C1(Cc2ccccc2)CCN(S(=O)(=O)c2ccc(F)c(F)c2)C1 (stereo not drawn) [Example 287, 5-(5-(3-benzyl-1-((3,4-difluorophenyl)sulfonyl)pyrrolidin-3-yl)-6-methyl-1H-indazol-1-yl)-1-methylpyridin-2(1H)-one] | 25
29 | 6.3 | Cc1cc2c(cnn2-c2ccc(=O)n(C)c2)cc1C1(Cc2ccccc2)CCN(S(=O)(=O)c2cccc(C#N)c2)C1 (stereo not drawn) [Example 295, 3-((3-benzyl-3-(6-methyl-1-(1-methyl-6-oxo-1,6-dihydropyridin-3-yl)-1H-indazol-5-yl)pyrrolidin-1-yl)sulfonyl)benzonitrile] | 62
30 | 6.3 | Cc1cc2c(cnn2-c2cc(F)c(=O)n(C)c2)cc1C1(Cc2ccccc2)CCN(S(=O)(=O)c2cnn(C)n2)C1 (stereo not drawn) [Example 246, 5-(5-(3-benzyl-1-((2-methyl-2H-1,2,3-triazol-4-yl)sulfonyl)pyrrolidin-3-yl)-6-methyl-1H-indazol-1-yl)-3-fluoro-1-methylpyridin-2(1H)-one] | 49
31 | 6.1 | Cc1cc2c(cnn2-c2ccc(=O)n(C)c2)cc1C1(Cc2ccccc2)CCN(S(=O)(=O)c2ccnn2C)C1 (stereo not drawn) [Example 293, 5-(5-(3-benzyl-1-((1-methyl-1H-pyrazol-5-yl)sulfonyl)pyrrolidin-3-yl)-6-methyl-1H-indazol-1-yl)-1-methylpyridin-2(1H)-one] | 100
32 | 6 | CC(=O)N1CCC(Cc2ccc(F)cc2)(c2cc3cnn(-c4ccc(F)cc4)c3cc2C)C1 (stereo not drawn) [Example 191, 1-(3-(4-fluorobenzyl)-3-(1-(4-fluorophenyl)-6-methyl-1H-indazol-5-yl)pyrrolidin-1-yl)ethan-1-one] | 61
33 | 5 | CCCn1cc(S(=O)(=O)NC2(C)CCN(c3cc4cnn(-c5ccc(F)cc5)c4cc3C)CC2)cn1 [Example 129] | 66
34 | 4.8 | Cc1cc2c(cnn2-c2cc(C)c(=O)n(C)c2)cc1C1(Cc2ccccc2)CCN(S(=O)(=O)c2cnn(C)n2)C1 (stereo not drawn) [Example 237, 5-(5-(3-benzyl-1-((2-methyl-2H-1,2,3-triazol-4-yl)sulfonyl)pyrrolidin-3-yl)-6-methyl-1H-indazol-1-yl)-1,3-dimethylpyridin-2(1H)-one] | 22
35 | 4 | Cc1cc2c(cnn2-c2ccc(F)cc2)cc1N1CCC(C)(NS(=O)(=O)c2cnn(C)c2)CC1 [Example 131] | 98
36 | 3 | Cc1cc2c(cnn2-c2ccc(=O)n(C)c2)cc1C1(Cc2ccccc2)CCN(S(=O)(=O)c2ccc(Cl)cc2)C1 (stereo not drawn) [Example 305, 5-(5-(3-benzyl-1-((4-chlorophenyl)sulfonyl)pyrrolidin-3-yl)-6-methyl-1H-indazol-1-yl)-1-methylpyridin-2(1H)-one] | 32
